In patent publication US20180125842A1, “Ergoloid for Cancer” (priority 2016, published 2018):

Tested on: splenic lymphoma
Assay: Clinical use in splenic lymphoma
Assay type: in vivo, human
Conditions: before addition of Ergoloid

Substance: Rituxan: an immunotherapy
- disease course on Rituxan alone: gradually allowing progression
